Measured values as given in patent US10266544B2, “Aryl substituted aminomethyl spectinomycin analogs as antibacterial agents” (ST. JUDE CHILDREN'S RESEARCH HOSPITAL, INC., priority 2013, dated 2019).
Values after ≈ are worked out from the molar mass of the structure shown. Where a name gives a salt, the structure may show the parent alone. Read-outs that look alike come from different tables or passages of the source.

Key:
Format in all cases: cell-based
[1] = test system: Proteus vulgaris (ATCC 33420); assay: MIC determination, microbroth dilution; conditions: ATCC33420
[2] = test system: Klebsiella pneumoniae (ATCC 33495); assay: MIC determination, microbroth dilution; conditions: ATCC33495
[3] = test system: Bacillus anthracis, Sterne 34F2; assay: microbe, parasite or virus in culture; conditions: STERNE34F2, read-out: MIC B.a.
E. coli K12 ΔtolC = assay: microbe, parasite or virus in culture; conditions: Escherichia coli, read-out: MIC E.c. Δtolc
[4] = test system: Enterococcus faecalis (ATCC 33186); assay: MIC determination, microbroth dilution; conditions: ATCC33186; Enterococcus faecalis (ATCC 33186); read-out: MIC E.f.
[5] = test system: Pseudomonas aeruginosa (PA01); assay: MIC determination, microbroth dilution
[6] = test system: Neisseria gonorrhoeae (ATCC 49226); assay: Disc diffusion assay; conditions: ATCC49226, 4 μg per disc, read-out: Zone of inhibition N.g.
[7] = test system: Staphylococcus aureus (ATCC 29213); assay: MIC determination, microbroth dilution; conditions: ATCC29213; Staphylococcus aureus (ATCC 29213); read-out: MIC S.a.
[8] = test system: Bacillus subtilis (ATCC 23857); assay: MIC determination, microbroth dilution; conditions: ATCC23857; Bacillus subtilis (ATCC 23857); read-out: MIC B.s.
[9] = test system: Streptococcus pyogenes (ATCC 700294); assay: MIC determination, microbroth dilution; conditions: ATCC700294; Streptococcus pyogenes (ATCC 700294); read-out: MIC S. py.
[10] = test system: MRSA, Staphylococcus aureus (NRS70); assay: MIC determination, microbroth dilution; conditions: Staphylococcus aureus (NRS70); read-out: MIC MRSA
[11] = test system: Legionella pneumophila (ATCC 33153); assay: microbe, parasite or virus in culture; conditions: ATCC33153, 72 h, read-out: Zone of inhibition L.p.
[12] = test system: Streptococcus pneumoniae (R6); assay: MIC determination, microbroth dilution; conditions: Streptococcus pneumoniae (R6); read-out: MIC S. pn.
[13] = test system: Haemophilus influenza (ATCC 49247); assay: microbe, parasite or virus in culture; conditions: ATCC49247; Haemophilus influenza; 4 μg per disc; range of at least two experiments; read-out: Zone of inhibition H.i.
[14] = test system: Stenotrophomonas maltophilia (ATCC 13637); assay: MIC determination, microbroth dilution; conditions: ATCC13637; Stenotrophomonas maltophilia (ATCC 13637); read-out: MIC S.m.
[15] = test system: acinetobacter baumannii (ATCC 19606); assay: MIC determination, microbroth dilution; conditions: ATCC19606
Bacillus anthracis = assay: microbe, parasite or virus in culture; conditions: read-out: MIC B.a.
[16] = test system: Escherichia coli (ATCC 700926); assay: MIC determination, microbroth dilution; conditions: ATCC700926; Escherichia coli (ATCC 700926); read-out: MIC E.c.
Description: MICs were determined using the microbroth dilution method according to Clinical Laboratory Standards Institute (CLSI; National, C. F. C. L. S., Methods for Dilution Antimicrobial Susceptibility Tests for Bacteria Grow aerobically-Seventh Edition: Approved Standard M7-A7, CLSI, Wayne, Pa., USA, 2008) and were read by visual inspection. Two fold serial dilutions of antibiotic in 100 μL of the appropriate broth media were first prepared in 96-well round bottom microtiter plates (Nalge Nunc International, Rochester, N.Y., USA). An equivalent volume (100 μL) of bacterial broth inocula containing approximately 10^5 bacterial cfu/mL was added to each well to give final concentrations of drug starting at 200 μg/mL and the plates were incubated aerobically at 37° C. M. tuberculosis microtiter plates were incubated for 7 days and all other strains were incubated overnight. After incubations, in all cases the MIC was recorded as the lowest concentration of drug that prevented bacterial growth.

[17] = test system: Neisseria meningitides (ATCC 13077); assay: Disc diffusion assay; conditions: ATCC13077, 4 μg per disc, read-out: Zone of inhibition N.m.
[18] = test system: M. tuberculosis clinical isolates; assay: microbe, parasite or virus in culture; conditions: Mycobacterium tuberculosis, H37RV, read-out: MIC H37Rv
[19] = test system: Burkholderia cepacia (ATCC 25416); assay: MIC determination, microbroth dilution; conditions: Burkholderia cepacia
[20] = test system: Proteus mirabilis (ATCC 25933); assay: MIC determination, microbroth dilution; conditions: ATCC25933
[21] = ATCC25416, read-out: MIC B.c., Burkholderia cepacia (ATCC 25416)

Q: How did the MIC [1] turn out when CN[C@@H]1[C@H](O)[C@H](NC)[C@H]2O[C@]3(O)[C@H](O[C@@H]2[C@H]1O)O[C@H](C)C[C@]3(O)CNCCc1ccccc1 [compound 27, 3′-(S)-3′-(phenethylaminomethyl)dihydrospectinomycin Trihydrochloride] was run?
A: > 200 µg/mL

Q: What about the MIC [2] of the same molecule?
A: > 200 µg/mL

Q: And the MIC [3]?
A: > 200 µg/mL

Q: What about the MIC (E. coli K12 ΔtolC) of the same molecule?
A: 25 to 50 µg/mL

Q: What about the MIC [4] of the same molecule?
A: > 200 µg/mL

Q: What about the MIC [5] of the same molecule?
A: > 200 µg/mL

Q: And the zone of inhibition at 4 µg/disc [6]?
A: 7 mm

Q: And the MIC [7]?
A: > 200 µg/mL

Q: What about the MIC [8] of the same molecule?
A: > 200 µg/mL

Q: What about the MIC [9] of the same molecule?
A: 50 to 100 µg/mL

Q: What about the MIC [10] of the same molecule?
A: > 200 µg/mL

Q: What about the zone of inhibition at 4 µg/disc [11] of the same molecule?
A: 0 mm

Q: And the MIC [12]?
A: > 200 µg/mL

Q: And the zone of inhibition at 4 µg/disc [13]?
A: 0 mm

Q: And the MIC [14]?
A: ≥ 200 µg/mL

Q: And the MIC [15]?
A: ≥ 200 µg/mL

Q: What about the MIC (Bacillus anthracis) of the same molecule?
A: > 200 µg/mL

Q: What about the MIC [16] of the same molecule?
A: 50 to 100 µg/mL

Q: And the zone of inhibition at 4 µg/disc [17]?
A: 0 mm

Q: What about the MIC [18] of the same molecule?
A: 200 µg/mL

Q: And the MIC [19, 21]?
A: 200 µg/mL

Q: What about the MIC ([19]; ATCC25416, read-out: MIC B.c., Burkholderia cepacia, Table 6) of the same molecule?
A: > 200 µg/mL

Q: And the MIC [20]?
A: > 200 µg/mL

Q: What does the source list for CN[C@@H]1[C@H](O)[C@H](NC)[C@H]2O[C@]3(O)[C@H](O[C@@H]2[C@H]1O)O[C@H](C)C[C@@]3(O)CNc1ccc(OC)cc1 [compound 29, 3′-(R)-3′-[(4-methoxy)phenylaminomethyl)]dihydrospectinomycin Trihydrochloride]?
A: MIC [1]: > 200 µg/mL; MIC [2]: > 200 µg/mL; MIC [3]: 100 to 200 µg/mL; MIC (E. coli K12 ΔtolC): 50 µg/mL; MIC [5]: > 200 µg/mL; zone of inhibition at 4 µg/disc [6]: 12 mm; MIC [7]: 200 µg/mL; MIC [8]: 200 µg/mL; MIC [9]: 25 µg/mL; MIC [10]: > 200 µg/mL; zone of inhibition at 4 µg/disc [11]: 0 mm; MIC [12]: > 200 µg/mL; zone of inhibition at 4 µg/disc [13]: 7 mm; MIC [14]: 200 µg/mL; MIC [15]: ≥ 200 µg/mL; MIC [16]: ≥ 200 µg/mL; zone of inhibition at 4 µg/disc [17]: 7 mm; MIC [18]: > 200 µg/mL; MIC [20]: > 200 µg/mL

Q: Which results are given for CN[C@@H]1[C@H](O)[C@H](NC)[C@H]2O[C@]3(O)[C@H](O[C@@H]2[C@H]1O)O[C@H](C)C[C@@]3(O)CNc1ccccc1 [compound 30, 3′-(R)-3′-(phenylaminomethyl)dihydrospectinomycin Trihydrochloride]?
A: MIC [1]: > 200 µg/mL; MIC [2]: > 200 µg/mL; MIC [3]: 100 to 200 µg/mL; MIC (E. coli K12 ΔtolC): 50 µg/mL; MIC [5]: > 200 µg/mL; zone of inhibition at 4 µg/disc [6]: 7 mm; MIC [7]: > 200 µg/mL; MIC [8]: ≥ 200 µg/mL; MIC [9]: 12.5 to 25 µg/mL; MIC [10]: > 200 µg/mL; zone of inhibition at 4 µg/disc [11]: 0 mm; MIC [12]: 12.5 to 25 µg/mL; zone of inhibition at 4 µg/disc [13]: 6 mm; MIC [14]: ≥ 200 µg/mL; MIC [15]: > 200 µg/mL; MIC [16]: 200 µg/mL; zone of inhibition at 4 µg/disc [17]: 6 mm; MIC [18]: > 200 µg/mL; MIC [19, 21]: > 200 µg/mL; MIC [20]: > 200 µg/mL

Q: Which results are given for CN[C@@H]1[C@H](O)[C@H](NC)C2O[C@]3(O)C(OC2[C@H]1O)O[C@H](C)C[C@@]3(O)CNCc1cccc(O)c1 (some centres unmarked) [compound 35]?
A: MIC [1]: ≥ 200 µg/mL; MIC [2]: > 200 µg/mL; MIC [3]: 25 µg/mL (≈ 53.2 µM); MIC (E. coli K12 ΔtolC): 6.3 to 12.5 µg/mL (≈ 13.4 to 26.6 µM); MIC [4]: 12.5 µg/mL (≈ 26.6 µM); MIC [5]: ≥ 200 µg/mL; zone of inhibition at 4 µg/disc [6]: 16 mm; MIC [7]: 25 to 50 µg/mL (≈ 53.2 to 106 µM); MIC [8]: 6.3 µg/mL (≈ 13.4 µM); MIC [9]: 0.4 to 0.8 µg/mL (≈ 0.852 to 1.7 µM); MIC [10]: 25 to 50 µg/mL (≈ 53.2 to 106 µM); zone of inhibition at 4 µg/disc [11]: 30 mm; MIC [12]: 0.8 to 1.6 µg/mL (≈ 1.7 to 3.41 µM); zone of inhibition at 4 µg/disc [13]: 15 to 16 mm; MIC [14]: 25 µg/mL (≈ 53.2 µM); MIC [15]: > 200 µg/mL; MIC [16]: 200 µg/mL (≈ 426 µM); zone of inhibition at 4 µg/disc [17]: 18 mm; MIC [18]: 50 µg/mL (≈ 106 µM); MIC [19, 21]: > 200 µg/mL; MIC [20]: > 200 µg/mL
